Source: patent publication US11207379B2, “Peptides with anti-cancer activity” (IDP DISCOVERY PHARMA, S.L., priority 2016, dated 2021)
Where two headings read alike, the source gives them in different places. Bridge positions count the residues as written; N and C are the ends. Square brackets hold non-standard residues; d marks the D form. Ends that are not written are not given here. Peptide text beside a SMILES is read from it. R8 = C=CCCCCCC[C@@](C)(N)C(=O)O; S5 = C=CCCC[C@](C)(N)C(=O)O

Tests used:
Experiment in all cases: Viability assay (MTT, Alamar Blue, hexosaminidase), 72 h
Type in all cases: cell-based
[1] = target: MM.1S, B Lymphoblast (multiple myeloma)
Procedure: MM.1S, B Lymphoblast (multiple myeloma), ATCC: CRL-2974
(§1) Cell lines A549, MCF-7 and RAMOS were cultured in incubator under CO2 (6%) at 37° C. in DMEM high glucose (Dulbecco's Modified Eagle Solution, Gibco-BRL 31966-21) medium with 10% fetal bovine serum inactivated (FBS) (Gibco-BRL 10106-169). Cell lines HL-60 and MM.1S were cultured in incubator at 37° C. in RPMI-1640 (Sigma R8758) medium with 10% of fetal bovine serum inactivated (FBS) and 2 mM glutamine (Sigma G7513). Cell lines BJ were cultured in incubator under CO2 (6%) at 37° C. in Eagle's Minimum Essential Medium (Sigma, M-2279) with 10% fetal bovine serum inactivated (FBS) (Gibco-BRL 10106-169).
(§2) During the amplification step and the assays adherent cells were rinsed with DPBS (Dulbecco's Phosphate Buffered Saline, Sigma D1283) three times and afterward treated for 5 minutes with trypsin ([…]) (Gibco-BRL, 15400054) in solution of DPBS at 37° C., and, once detached, transferred in the culturing medium. No-adherent cells were centrifuged and transferred in the culturing medium. Cells were counted in a Neubauer chamber after labelling with Tripan-Blue.
(§3) A549, MCF-7 and JB cells were seeded at a density of 5000 cells/well and HL-60, MM.1S and Ramos at 10000 cells/well in 100 μl of medium in 96 well plates. After 24 h, the compounds to be tested were added to calculate the dose/response curve at the starting concentration of 100 μM with serial dilutions (1:1). Controls are the untreated cells. Each experiment was performed in triplicate.
(§4) Cells were incubated during 72 h in incubator under CO2 atmosphere at 37° C. Cell viability was measured by means of MTT (3-(4,5-dimethylthiazol-2-yl)-2.5-diphenyltetrazolium bromide) assay, Alamar Blue® (Biosource DAL1100) and Hexosaminidase activity test, consecutively, following manufacturer instructions.
(§5) MTT: 1. Stock solution of MTT (475989 Calbiochem) was 5 mg/ml in PBS 1×. As negative control (experiment noise) 3 wells were treated with 20 μl/well of a solution of SDS 10% in H2O. The same control was used for Alamar Blue/Hexosaminidase. 10 μl/well of MTT solution were added and the plate was incubated for 3-4 hr. The medium was discarded and 100 μl of extracting buffer (PBS 1×, 15% SDS, 50% […] N,N-Dimethylformamide, pH 4.7) were added to each well. Plates were incubated for 16 h at room temperature under orbital shaking. Absorbance at 570 nm was finally measured.
(§6) Alamar Blue: 10 μl Alamar Blue solution was added to each well and the plates were incubated for […] in the incubator. Fluorescence ratio at 535/590 (excitation/emission) was measured in Cytofluor (Millipore) fluorimeter. Blank control was determined by lysis of untreated cells with con 2% of Triton X100, right before adding Alamar Blue solution.
(§7) Hexosaminidase activity test: after Alamar Blue lecture, medium was discarded and plates were rinsed once with PBS. 60 μl hexosaminidase substrate (p-nitrophenol-N-acetyl-beta-D-glucosamide 7.5 mM [Sigma N-9376], sodium citrate 0.1 M, pH 5.0, 0.25% Triton X-100) was added to each well and the plates were incubated at 37° C. for 2-5 h, according to the cell type (hexosaminidase activity changes according to the cell type). […] Blank control was the same as described before.
(§8) Data analysis was performed calculating the percentage of cell viability normalized vs. the values of negative control, which was considered equal to 100%. The dose/response curve was fitted through the sigmoidal equation dose-response (variable slope) and the EC50 values were calculated as follow: Y=Bottom+(Top−Bottom)/(1+10^{[(Log EC50−X)*HillSlope]},

[2] = target: HL-60, promyeloblast (acute myelocytic leukemia, AML)
Procedure: HL-60, promyeloblast (acute myelocytic leukemia, AML), ECACC: 98070106
as §1, §2, §3, §4, §5, §6, §7, §8

[3] = target: A549, epithelial (lung cancer)
Procedure: A549, epithelial (lung cancer), ATCC:CCL-185
as §1, §2, §3, §4, §5, §6, §7, §8

[4] = target: RAMOS, B lymphocyte (Burkitt's Lymphoma)
Procedure: RAMOS, B lymphocyte (Burkitt's Lymphoma), ATCC: CRL-1596
as §1, §2, §3, §4, §5, §6, §7, §8

[5] = target: MCF-7, epithelial (breast cancer)
Procedure: MCF-7, epithelial (breast cancer), ECACC: 86012803
as §1, §2, §3, §4, §5, §6, §7, §8

Compound | EC50 ([1]; MM.1S cells, read-out: EC50) [µM] | EC50 ([2]; HL-60 cells, read-out: EC50) [µM] | EC50 ([3]; A549 cells, read-out: EC50) [µM] | EC50 ([4]; Ramos cells, read-out: EC50) [µM] | EC50 ([5]; MCF7 cells, read-out: EC50) [µM] | EC50 [1] [µM] | EC50 [2] [µM] | EC50 [3] [µM] | EC50 [4] [µM] | EC50 [5] [µM]
QRRNXLKRAFAXLRD-OH [IDP-S312] | ~25 | – | – | – | – | – | – | – | – | –
CCc1ccc(/C=C2/SC(=S)NC2=O)cc1 [10058-F4, reference compound] | > 100 | 54 ± 2 | > 100 | ~57 | ~52 | – | – | – | – | –
CC[C@H](C)[C@H](NC(=O)[C@@H](NC(=O)[C@@H](NC(=O)[C@H](CCCCN)NC(=O)[C@@H]1CCCN1C(=O)[C@H](C)N)C(C)C)C(C)C)C(=O)N[C@]1(C)CCCCCC/C=C\CCC[C@@](C)(C(=O)N[C@@H](CC(C)C)C(=O)N[C@@H](CO)C(N)=O)NC(=O)[C@H](Cc2ccc(O)cc2)NC(=O)[C@H](C)NC(=O)[C@H]([C@@H](C)O)NC(=O)[C@H](C)NC(=O)[C@H](CCCCN)NC(=O)[C@H](CCCCN)NC1=O [IDP-S17, APKVVIXKKATAYXLS] (H-APKVVI[R8]KKATAY[S5]LS-NH2; staple (Z) 7-14; N-terminus and C-terminus assumed) | – | – | – | – | – | > 100 | > 100 | > 100 | > 100 | > 100
RQRRNELKRXFFALRDX-NH2 [IDP-S12] | 22 ± 2 | 23 ± 1 | 50 | 52 ± 2 | 42 ± 2 | – | – | – | – | –
APKXVIFKKAXAYILS-OH [IDP-S14] | 6.6 ± 0.9 | 7.8 ± 0.4 | 9.1 ± 0.8 | 55 | – | – | – | – | – | –
RQRRNXLKRAFAXLRD-OH [IDP-S311] | ~15 | – | – | – | – | – | – | – | – | –
CC(C)C[C@@H]1NC(=O)[C@H](C)NC(=O)[C@H](C)NC(=O)[C@H](Cc2ccccc2)NC(=O)[C@](C)(NC(=O)[C@H](CCCNC(=N)N)NC(=O)[C@H](CCCCN)NC(=O)[C@H](CC(C)C)NC(=O)[C@H](CCC(=O)O)NC(=O)[C@H](CC(N)=O)NC(=O)[C@H](CCCNC(=N)N)NC(=O)[C@H](CCCNC(=N)N)NC(=O)[C@H](CCC(N)=O)NC(=O)[C@@H](N)CCCNC(=N)N)CCCCCC/C=C\CCC[C@@](C)(C(N)=O)NC(=O)[C@H](CC(=O)O)NC(=O)[C@H](CCCNC(=N)N)NC1=O [IDP-S04, RQRRNELKRXFAALRDX-H2] (H-RQRRNELKR[R8]FAALRD[S5]-NH2; staple (Z) 10-17; N-terminus assumed) | 19 ± 1 | ~24 | – | ~64 | ~60 | – | – | – | – | –
RQRRNELKRSFFALRDQ [IDP-L11, RQRRNELKRSFFALRDQ] | – | – | – | – | – | > 100 | > 100 | – | > 100 | > 100
CC[C@H](C)[C@@H]1NC(=O)[C@H](Cc2ccc(O)cc2)NC(=O)[C@H](C)NC(=O)[C@H]([C@@H](C)O)NC(=O)[C@H](C)NC(=O)[C@H](CCCCN)NC(=O)[C@](C)(NC(=O)[C@H](CC(C)C)NC(=O)[C@@H](NC(=O)[C@@H](NC(=O)[C@@H](NC(=O)[C@H](CCCCN)NC(=O)[C@@H]2CCCN2C(=O)[C@H](C)N)C(C)C)C(C)C)[C@@H](C)CC)CCCCCC/C=C\CCC[C@@](C)(C(=O)N[C@@H](CO)C(N)=O)NC1=O [IDP-S18, APKVVILXKATAYIXS] (H-APKVVIL[R8]KATAYI[S5]S-NH2; staple (Z) 8-15; N-terminus and C-terminus assumed) | – | – | – | – | – | > 100 | > 100 | > 100 | > 100 | > 100
CC[C@H](C)[C@H](NC(=O)[C@]1(C)CCC/C=C\CCCCCC[C@@](C)(NC(=O)[C@@H](NC(=O)[C@@H](NC(=O)[C@H](CCCCN)NC(=O)[C@@H]2CCCN2C(=O)[C@H](C)N)C(C)C)C(C)C)C(=O)N[C@@H](CC(C)C)C(=O)N[C@@H](CCCCN)C(=O)N[C@@H](CCCCN)C(=O)N[C@@H](C)C(=O)N[C@@H]([C@@H](C)O)C(=O)N[C@@H](C)C(=O)N1)C(=O)N[C@@H](CC(C)C)C(=O)N[C@@H](CO)C(N)=O [IDP-S22, APKVVXLKKATAXILS] (H-APKVV[R8]LKKATA[S5]ILS-NH2; staple (Z) 6-13; N-terminus and C-terminus assumed) | – | – | – | – | – | > 100 | > 100 | > 100 | > 100 | > 100
CC(C)C[C@@H]1NC(=O)[C@H](C)NC(=O)[C@H](Cc2ccccc2)NC(=O)[C@H](Cc2ccccc2)NC(=O)[C@](C)(NC(=O)[C@H](CCCNC(=N)N)NC(=O)[C@H](CCCCN)NC(=O)[C@H](CC(C)C)NC(=O)[C@H](CCC(=O)O)NC(=O)[C@@H](N)CC(N)=O)CCCCCC/C=C\CCC[C@@](C)(C(N)=O)NC(=O)[C@H](CC(=O)O)NC(=O)[C@H](CCCNC(=N)N)NC1=O [IDP-S13, NELKRXFFALRDX-NH2] (H-NELKR[R8]FFALRD[S5]-NH2; staple (Z) 6-13; N-terminus assumed) | > 100 | > 100 | – | > 100 | > 100 | – | – | – | – | –
